Our source for the TGI and GI50 values is PubChem BioAssay (NCI).

Where “and” joins values, the source holds several entries; their conditions need not be identical. Equal values may be shown once.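 Exposure lasted 48 hours, with cells grown in 96-well plates and compounds tested at five concentrations. GI50: concentration for 50% inhibition of growth. Definition used: TGI = concentration required for complete inhibition of growth.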 Where a SMILES comes first, the peptide text is derived from it. The star is where a group is joined. Boc = CC(C)(C)OC(=O)* A value given as a limit tells only on which side of the number the result lay.

Holding throughout (test): growth of human tumour cells (NCI), 48 h
The subject of experiment [1] is HL-60(TB) leukemia.
The test system of experiment [2] is HT29 colon.
The test system of experiment [3] is CCRF-CEM leukemia.
The subject of experiment [4] is HOP-62 NSCLC.
In experiment [5] the test system is EKVX NSCLC.
Experiment [6] concerns SW-620 colon.
Experiment [7] concerns OVCAR-8 ovarian.
The test system of experiment [8] is DU-145 prostate.
Experiment [9] relates to SNB-75 CNS.
Experiment [10] deals with MDA-N.
The test system of experiment [11] is RPMI-8226 leukemia.
Experiment [12] has as its system SF-268 CNS.
In experiment [13] the test system is NCI-H23 lung.
The subject of experiment [14] is SF-295 CNS.
The subject of experiment [15] is UO-31 renal.
Experiment [16] concerns M14 melanoma.
For experiment [17], the system named is ACHN renal.
Experiment [18] has as its system KM12 colon.

As to `C=CC(Cl)(CBr)CCC(Br)C(C)(C)Cl` (centres undefined), the TGI in experiment [1] turned out to be 19.3 µM; in experiment [2], 28.9 µM; in experiment [3] it was 29 µM; in experiment [4] it was 30.6 µM; in [5], 42.4 µM; in [6], 26.2 µM. In addition, the TGI in experiment [7] was determined as 31.5 µM; in experiment [8], 42.8 µM; in experiment [9] it was 68.8 µM; in experiment [10], 32.4 µM; in experiment [11] it was 29.5 µM; in experiment [12], 48.4 µM. The TGI in [13] was 31.3 µM; in experiment [14], 28.8 µM; in [15] it was 29.3 µM; in experiment [16] it was 29 µM; in [17], 38.2 µM.
With `COc1cc(/C=c2\sc3n(c2=O)C(c2ccc(Cl)cc2)C2=C(CCCC2C)N=3)cc(OC)c1OC` (centres undefined), the TGI in [1], in experiment [2], in experiment [3], in [4], in experiment [5] and in experiment [6] was over 100 µM each time. Besides, the TGI in experiment [7], in experiment [8], in [9], in experiment [18], in [10] and in [11] was over 100 µM throughout. Further, the TGI in experiment [12], in experiment [15], in experiment [16] and in [17] was over 100 µM throughout.
`BrC(c1cccc2ccccc12)c1cccc2ccccc12`: the TGI in [1] was found to be 51.4 µM; in experiment [2] it was 35.8 µM; in experiment [4], 27.1 µM; in experiment [5], 56.4 µM; in [6], 45.5 µM; in experiment [7], 35.1 µM. For the same compound, the TGI in experiment [8] was 26.4 µM; in [9], 29.1 µM; in [18] it was 28.8 µM; in [10] it was 32.6 µM; in experiment [11], over 100 µM; in experiment [12], 26.6 µM. The TGI in [13] is 43 µM; in [14], 44.7 µM; in experiment [15] it was over 100 µM; in [16], 37.6 µM; in experiment [17], 52.3 µM.
For the compound `Cc1cc(S(=O)(=O)Nc2nc3ccccc3c(=O)n2N)c(S)cc1Cl`, the TGI is over 100 µM in experiment [1]; over 100 µM in experiment [2]; over 100 µM in [3]; 79.7 µM in experiment [4]; over 100 µM in [5]; over 100 µM in [6]. For the same compound, the TGI in experiment [7] is over 100 µM; in experiment [8] it was over 100 µM; in experiment [9], 92.7 µM; in [18], over 100 µM; in experiment [10] it was over 100 µM; in experiment [11] it was over 100 µM. Besides, the TGI in experiment [12] was 40.1 µM; in experiment [13], over 100 µM; in [14], over 100 µM; in experiment [16], over 100 µM; in experiment [17], over 100 µM. The results for the GI50 in experiment [9] and in [12] were 13.3 µM and 7.23 µM, respectively.
`COC(=O)C(Cc1c[nH]c2ccccc12)NC(=O)C(Cc1c[nH]c2ccccc12)NC(=O)C(Cc1c[nH]c2ccccc12)NC(=O)C(Cc1c[nH]c2ccccc12)NC(=O)C(Cc1c[nH]c2ccccc12)NC(=O)C(Cc1c[nH]c2ccccc12)NC(=O)C(Cc1c[nH]c2ccccc12)NC(=O)C(Cc1c[nH]c2ccccc12)NC(=O)OC(C)(C)C` (centres undefined) (Boc-WWWWWWWW-OMe; configuration not given here): the TGI in experiment [1] was 53.5 µM; in experiment [2] it was over 100 µM; in [3], 96.2 µM; in experiment [4] it was over 100 µM; in experiment [6], over 100 µM; in experiment [7] it was over 100 µM. Moreover, the TGI in experiment [8], in experiment [9], in [10], in experiment [11], in experiment [12] and in experiment [13] was over 100 µM in each case. The results for the TGI in experiment [15], in experiment [16] and in [17] were over 100 µM, 25.1 µM and over 100 µM, respectively.
With `O=C1Oc2cc(O)cc(/C=C/c3ccc(O)cc3)c2[C@@]12c1c(O)cc(O)cc1OC2c1cccc(O)c1` (some centres undefined), the TGI in experiment [1] is 97.9 µM; in experiment [2], 65 µM; in experiment [3], 56.5 µM; in experiment [4] it was 65.5 µM; in experiment [5] it was over 100 µM; in experiment [7], over 100 µM. In addition, the TGI in experiment [8] was over 100 µM; in experiment [9], over 100 µM; in [18] it was over 100 µM; in [10], 93.2 µM; in experiment [11] it was 37.1 µM; in [12] it was over 100 µM. Further, the TGI in experiment [13] is 73.4 µM; in experiment [14] it was 88.1 µM; in experiment [15], over 100 µM; in [16] it was over 100 µM; in experiment [17], over 100 µM.
Consider `COC(=O)C1OC(O[C@H]2CC[C@]3(C)[C@H]4CC=C5[C@@H]6CC(C)(C)CC[C@]6(C(=O)OC6OCC(O)C(O)C6OC6OC(C)C(OC7OCC(O)C(O)C7O)C(O)C6O)CC[C@@]5(C)[C@]4(C)CC[C@H]3C2(C)C)C(O)C(O)C1O` (some centres undefined), for which the TGI in experiment [1] was 41.3 µM and 35.1 µM; in experiment [2], 30.8 µM and 29.5 µM; in [3], 53.5 µM and 47.2 µM; in experiment [4] it was 33.2 µM and 32.6 µM; in experiment [5], 33.7 µM and 32 µM; in [6], 39.5 µM and 48.7 µM. For the same compound, the TGI is 40.7 µM and 42.8 µM in experiment [7]; 33.7 µM and 47.8 µM in experiment [8]; 30 µM and 30.4 µM in experiment [9]; 30.3 µM in experiment [18]; 29.3 µM and 33.1 µM in [10]; > 100 µM and 42 µM in experiment [11]. Moreover, the TGI was 31.2 µM and 34.7 µM in experiment [12]; 29.1 µM and 30 µM in experiment [13]; 34.8 µM and 32.2 µM in [14]; 26.5 µM and 36 µM in experiment [15]; 28.6 µM and 32.5 µM in [16].
Take `N#Cc1ccc(-n2c3ccccc3c3ccc4c(c32)C(=O)C=CC4=O)cc1`: the TGI was over 100 µM in experiment [1]; 5.88 µM in experiment [2]; 30.8 µM in experiment [4]; 5.58 µM in [5]; 3.31 µM in [6]; over 58.7 µM in [7]. Moreover, the TGI in [8] is over 24.7 µM; in experiment [9], over 53.3 µM; in experiment [18], 26.5 µM; in [10] it was 13.1 µM; in experiment [11] it was over 100 µM; in [12] it was 9.12 µM. Besides, the TGI in [13] was 24.4 µM; in [14], 28.2 µM; in [15] it was 3.02 µM; in experiment [16], 7.57 µM; in experiment [17] it was 3.01 µM.
Consider `O=C(NCCCCCCNC(=O)c1cc(-c2ccccc2)nc2ccccc12)c1cc(-c2ccccc2)nc2ccccc12`, for which the TGI in experiment [1], in experiment [2], in experiment [3], in experiment [4], in experiment [5] and in experiment [6] was over 100 µM throughout. For the same compound, the TGI in experiment [7], in [8], in experiment [9], in experiment [10], in experiment [11] and in [12] was over 100 µM each time. For the same compound, the TGI in experiment [13], in experiment [14], in experiment [15], in experiment [16] and in [17] was over 100 µM each time.
On to `CC(=O)OCC1OC(n2c(-c3ccc(C)cc3)cc(-c3ccccc3)c(C#N)c2=S)C(OC(C)=O)C(OC(C)=O)C1OC(C)=O` (centres undefined), for which the TGI in experiment [1], in [2], in [4], in experiment [5], in experiment [6] and in [7] was over 100 µM each time. The TGI in experiment [8], in experiment [9], in [18], in experiment [10], in experiment [11] and in experiment [12] was over 100 µM throughout. Moreover, the TGI in experiment [13], in [14], in experiment [15], in experiment [16] and in experiment [17] was over 100 µM throughout.
With `CCOC(=O)c1ccc(N=c2sc3ccccc3nc2Nc2ccc(C(=O)OCC)cc2)cc1`, the TGI in [1], in experiment [2], in experiment [3], in experiment [4], in experiment [5] and in [6] was over 100 µM each time. Moreover, the TGI in experiment [7], in [8], in experiment [9], in experiment [18], in experiment [10] and in experiment [11] was over 100 µM each time. Besides, the TGI in [12], in experiment [13], in [14], in [15] and in experiment [17] was over 100 µM in each case.
In the case of `CCOC(=O)NC(Nc1ccc(C(=O)OCC)cc1)(C(F)(F)F)C(F)(F)F`, the TGI in experiment [1], in experiment [2], in experiment [3], in experiment [4], in experiment [6] and in experiment [7] was over 100 µM in each case. Moreover, the TGI in experiment [8], in experiment [9], in experiment [18], in experiment [10], in [11] and in [12] was over 100 µM each time. Moreover, the TGI in experiment [13], in experiment [14], in experiment [15], in experiment [16] and in experiment [17] was over 100 µM each time.
In the case of `Oc1ccc2c(c1)-c1c(c3ccccc3n1CCN1CCOCC1)CC2`, the TGI in [1], in [2], in experiment [3], in experiment [4], in experiment [5] and in experiment [7] was over 100 µM each time. Moreover, the TGI in [8] is over 100 µM; in experiment [9], 68.5 µM; in experiment [18], 51.3 µM; in [10] it was over 100 µM; in experiment [11], over 100 µM; in [12], over 100 µM. Besides, the TGI is 69.1 µM in experiment [13]; over 100 µM in [14]; over 100 µM in experiment [15]; 88 µM in [16]; 53.3 µM in [17].
With `CC(C)NC(=O)CN1CCN(c2c(O)c3c(c(O)c2Cl)C(=O)C=CC3=O)CC1`, the TGI in [1] was 0.642 µM; in experiment [2] it was 2.58 µM; in [4] it was 18.6 µM; in [5], 12 µM; in experiment [6] it was 1.92 µM; in [7] it was 3.81 µM. Moreover, the TGI in [8] is 7.31 µM; in experiment [9] it was 11.3 µM; in experiment [18] it was 18.4 µM; in experiment [10], 3.43 µM; in experiment [11], 7.27 µM; in [12], 4.04 µM. Also, the TGI in experiment [13] amounted to 3.02 µM; in experiment [14], 19.7 µM; in experiment [15], 2.64 µM; in [16], 2.93 µM; in experiment [17] it was 4.9 µM.
As for `O=C(Nc1nc(C23CC4CC(CC(C4)C2)C3)cs1)c1cc2ccccc2oc1=O`, the TGI in experiment [1], in experiment [2], in experiment [3], in experiment [4], in experiment [5] and in experiment [6] was over 100 µM in each case. Also, the TGI in [7], in experiment [8], in [9], in experiment [18], in experiment [10] and in experiment [11] was over 100 µM throughout. In addition, the TGI in experiment [12], in experiment [13], in experiment [14], in [15] and in [17] was over 100 µM in each case.
